Measurements taken from US20190029975A1, “TOCOPHEROL AND TOCOTRIENOL QUINONE DERIVATIVES FOR INCREASING THIOSULFATE LEVELS OR DECREASING HYDROGEN SULFIDE LEVELS” (BIOELECTRON TECHNOLOGY CORPORATION, priority 2016, published 2019).

Columns and labels:
[1] = test system: mouse striatal cells (Q7); experiment: Thiosulfate production in EPI-743 treated ATG-stressed Q7 cells; assay type: cell-based; settings: for effect on cysteine levels: Q7 cells, 10 μM ATG or 100 nM EPI-743; for Cysteine Calculated Concentration / Thiosulfate Peak Area: 100 nM 743
Procedure: Conditionally immortalized wild-type mouse striatal cells (Q7, passage #45) were seeded at 300,000 cells per well in 6-well plates containing 3 mL/well of DMEM (High Glucose) containing 10% FBS, penicillin/streptomycin, and 400 μg/mL G418. After an overnight incubation at 33C, the cells were treated for 4-5 hours with either EPI-743 (100 nM final concentration) or DMSO vehicle (1% final concentration). Aurothioglucose (final concentration 10 μM) was added prior to an 18-hour treatment period. Cells were washed 1× with Hanks' buffered saline solution (HBSS), counted, and then resuspended in monobromobimane capping solution.
Cysteine and thiosulfate levels are shown below. Aurothioglucose (ATG) is an inhibitor of thioredoxin reductase-1 and has been repeatedly used as a tool compound to increase oxidative stress. […] Cysteine levels were unaffected by ATG or EPI-743 treatment.

[2] = Plasma thiosulfate in Leigh Syndrome patients treated with EPI-743 (EPI743-12-002 Leigh Trial); assay type: in vivo, human
Procedure: As part of the Edison EPI743-12-002 Leigh Trial, 17 Leigh Syndrome patients were treated with EPI-743 (15 mg/kg up to 200 mg three times a day) for 12 months. An additional 14 Leigh Syndrome patients received placebo for the first six months, and were randomized to either 5 or 15 mg/kg up to 200 mg three times a day EPI-743 for the subsequent six months.
Plasma thiosulfate concentrations were measured at various time points, over a 12 month period, for patients on drug and placebo. Plasma samples were collected from Leigh Syndrome patients, and the samples processed according to the procedure described in Example 2. […]
(§1) The samples were analyzed by measuring the absolute concentration of H2S, thiosulfate, and glutathione persulfide using 6-point calibration curves. […]
(§2) An API mass spectrometer (AB6500 Qtrap) coupled to a high performance liquid chromatograph (Eksigent MicroLC 200 Plus) was used to quantify H2S, thiosulfate, and glutathione persulfide and their internal standards from all biological fluids and calibrants. […]
(§3) Bromobimane (BB) and Bromobimane internal standard (B-IS) were injected before each calibration curve. […] Statistical calculations and analytical run acceptance were determined based on criteria set forth in the FDA/EMA guidance where applicable. Fundamental parameters such as accuracy, precision, selectivity, sensitivity, reproducibility, and stability were monitored.

[3] = test system: SQOR products (thiosulfate, glutathione persulfide); experiment: Correlation of plasma H2S with the SQOR products thiosulfate and glutathione persulfide in Leigh Syndrome patients; assay type: in vivo, human; settings: all subjects at all time points
Procedure: A quantitative method for the analysis of H2S, thiosulfate, and glutathione persulfide in biological matrices via liquid chromatography coupled to atmospheric pressure ionization (API) tandem mass spectrometry (LC-MS/MS) is provided.
Patient plasma samples were collected with informed consent from the patients described in Example 1. The sulfur containing compounds were derivatized with bromo bimane to stabilize the samples for measurement. Samples were stored at −80° C. and shipped for analysis to Edison under dry ice.
as §1, §2
as §3, with “monitored. […]” for “monitored.”

Structure (SMILES) | effect on cysteine levels [1] | increase in mean plasma thiosulfate ([2]; Leigh Syndrome patients, across all time points over 12 months, versus baseline, placebo virtually no change) | mean plasma thiosulfate ([2]; subjects treated with EPI-743, across all time points, baseline 0.21 μM) [µM] | H2S/glutathione persulfide ratio versus untreated patients [3] | H2S/thiosulfate ratio versus untreated patients [3] | Cysteine Calculated Concentration ([1]; 10 μM ATG, 1% DMSO control 0.272) [µM] | Thiosulfate Peak Area ([1]; 10 μM ATG, 1% DMSO control 3466) | increase in thiosulfate, EPI-743 treated versus untreated cells ([1]; ATG-stressed cells (10 μM ATG), 100 nM EPI-743) | Cysteine Calculated Concentration ([1]; No Stress, 1% DMSO control 0.251) [µM] | Thiosulfate Peak Area ([1]; No Stress, 1% DMSO control 2881)
OC[C@H]1O[C@H]([S-])[C@H](O)[C@@H](O)[C@@H]1O.[Au+] [ATG, Aurothioglucose, reference compound] | unaffected |  |  |  |  |  |  |  |  | 
CC(C)=CCC/C(C)=C/CC/C(C)=C/CC[C@@](C)(O)CCC1=C(C)C(=O)C(C)=C(C)C1=O [EPI-743] | unaffected | greater than 100% | 0.54 | lower | lower | 0.281 | 37903 | approximately 10 fold | 0.264 | 3656
